Consider 25 compounds from US11059842B2, “Monosaccharide amine and 3-nitro-2-phenyl-2H-chromene based inhibitors of glucose kinases” (UNIVERSITY OF SOUTH CAROLINA, priority 2019, dated 2021).

SMILES strings stand for the structures. Where “and” joins values, the source holds several entries; their conditions need not be identical. Equal entries are not always repeated.

Assay [1] relates to T. cruzi (Tulahuen strain) infective form (trypomastigote and amastigote life stages) co-cultured in NIH-3T3 fibroblasts. As to the kind of experiment: T. cruzi infective form growth inhibition in NIH-3T3 fibroblasts. Type of assay: cell-based, Trypanosoma cruzi. Particulars: Tulahuen strain infective form in NIH-3T3 fibroblasts; N = 3 (Amphotericin B control: 6 replicates). As for the experimental part:
The curve and the IC50 were calculated from measurements determined in triplicate and expressed as percent growth inhibition of the T. cruzi parasite infection of mammalian cells.
Compounds were further screened against the T. cruzi (Tulahuen strain) infective form (trypomastigote and amastigote life stages) co-cultured in NIH-3T3 fibroblasts to establish IC50 values. Assays were performed in triplicate.
The single dose in vitro study included administration of the compounds in 80 μM inhibitor concentrations (N=3). Amphotericin B was used as a control.

The target of assay [2] is Homo sapiens hexokinase IV (HsHxKIV) (Homo sapiens (Human), UniProt P35557). As to the kind of experiment: HsHxKIV enzyme-inhibition screening assay (Example 1). Particulars: 20 μM compound; N = 1. Type of assay: biochemical. How it is done: (§1) D-Glucose was also tested as a control with alternative substrates. The protein expression work for TcGlcK and HsHxKIV were each made possible through the E. coli strain BL21(DE3) system. Purification of each enzyme was performed through cobalt-NTA chromatography followed by size-exclusion chromatography; assessment of purity was performed by SDS-PAGE. In enzymatic assays, a time-optimum (TOPT) was determined to be 120 seconds for TcGlcK and 600 seconds for HsHxKIV; all assays were run at room temperature. A general reaction scheme included a first reaction in which the monosaccharide, ATP, and Mg^2+ react with the enzyme, e.g., TcGlcK, forming a hexose-phosphate and ADP. In a second reaction, hexose-phosphate with the assistance of glucose-6-phosphate dehydrogenase (G6PDH) and NADP^+ was converted to the lactone form of the hexose-phosphate and NADPH. Fluorescence of NADPH was monitored using a fluorescence microplate reader with […] wavelengths of 340 nm and 485 nm, respectively.
(§2) FIG. 4 and FIG. 5 present typical Michaelis-Menten enzyme kinetic plots for D-glucose. As shown, the NADP^+ to NADPH turnover rate is a function of [D-glucose] & [ATP] for TcGlcK (FIG. 4) and HsHxKIV (FIG. 5) absent inhibition. Michaelis-Menten constant (KM) values, which were used as the set final assay concentrations of substrates D-glucose and ATP for the primary screens, were determined for both TcGlcK and HsHxKIV in triplicate runs. The KM values for TcGlcK with respect to D-glucose and ATP were 0.40 mM and 0.34 mM, respectively. The KM values for HsHxKIV with respect to D-glucose and ATP were 43 mM and 0.20 mM, respectively.

Assay [3] deals with glucose-6-phosphate dehydrogenase (G6PDH). As to the kind of experiment: G6PDH confirmatory assay (coupling enzyme counter-screen). Type of assay: biochemical. As to conditions: 20 μM compound; quadruplicate. How it is done: The 16 compounds showing substantial inhibition against TcGlcK at compound concentrations of 20 μM were then examined in a confirmatory assay in which the amino sugar analogues were at a concentration of 20 μM and were tested against the assay's only coupling enzyme, G6PDH, to verify enzyme activity; the assay was performed in quadruplicate. […] These confirmed hits included representatives from all three monosaccharide scaffolds tested (i.e., D-GlcN, D-ManN, and D-GalN).
In general terms: Counterscreens check selectivity or assay interference.

In assay [4] the target is Trypanosoma cruzi glucokinase (TcGlcK) (Trypanosoma cruzi (strain CL Brener), UniProt Q4E4E1). It counts as biochemical. Particulars: percentage of inhibition at 20 μM of the compound; N = 1. As for the experimental part:
as §1, with “In enzymatic assays, a time-optimum (TOPT) was determined to be 120 seconds for TcGlcK and 600 seconds for HsHxKIV; all assays were run at room temperature.” left out
Michaelis-Menten constant (KM) values, which were used as the set final assay concentrations of substrates D-glucose and ATP for the primary screens, were determined for both TcGlcK and HsHxKIV in triplicate runs. […]
The cutoff percentage was calculated by using normalized percent inhibition that took into consideration the positive and negative controls of the fluorescence readout from a fluorescence microplate reader. In addition, an unconfirmed hit was selected if the activity measurement was three standard deviations away from the mean of the positive controls.

A further assay concerns T. brucei. Briefly: T. brucei in vitro screen. As to conditions: Trypanosoma brucei; average; concentrations up to 10 μM, N=3. Type of assay: cell-based. How it is done:
Compounds 19-31 were screened against T. brucei. The single dose in vitro study included administration of the compounds in increasing concentrations up to 10 μM (N=3 for each compound concentration value). Media and T. bricei+0.5% SDS were used as control.

The target in a further assay is TcGlcK (Trypanosoma cruzi (strain CL Brener), UniProt Q4E4E1). As to the kind of experiment: TcGlcK Michaelis-Menten kinetics and substrate range. It counts as biochemical. As for the experimental part:
as §1, §2
All phosphorylated hexoses were shown getting converted into their corresponding products by G6PDH, in abundant quantities through a 30-second time frame. This permitted the standard TcGlcK […] assay, which was timed for […], to be used as an assay to analyze alternative substrates.

TcGlcK, sequence (Q4E4E1 1-376): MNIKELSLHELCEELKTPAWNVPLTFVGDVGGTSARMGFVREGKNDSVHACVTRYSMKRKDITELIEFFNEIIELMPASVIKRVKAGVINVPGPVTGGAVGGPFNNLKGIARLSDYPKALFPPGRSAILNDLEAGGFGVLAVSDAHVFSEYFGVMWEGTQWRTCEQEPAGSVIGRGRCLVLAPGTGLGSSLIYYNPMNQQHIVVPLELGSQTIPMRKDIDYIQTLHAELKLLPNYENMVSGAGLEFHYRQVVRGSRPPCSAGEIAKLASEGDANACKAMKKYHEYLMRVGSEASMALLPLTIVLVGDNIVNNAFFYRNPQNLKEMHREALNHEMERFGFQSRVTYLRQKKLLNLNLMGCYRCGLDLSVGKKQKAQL
Trypanosoma cruzi glucokinase (TcGlcK), sequence (Q4E4E1 1-376): as above
Homo sapiens hexokinase IV (HsHxKIV), sequence (P35557 whole entry): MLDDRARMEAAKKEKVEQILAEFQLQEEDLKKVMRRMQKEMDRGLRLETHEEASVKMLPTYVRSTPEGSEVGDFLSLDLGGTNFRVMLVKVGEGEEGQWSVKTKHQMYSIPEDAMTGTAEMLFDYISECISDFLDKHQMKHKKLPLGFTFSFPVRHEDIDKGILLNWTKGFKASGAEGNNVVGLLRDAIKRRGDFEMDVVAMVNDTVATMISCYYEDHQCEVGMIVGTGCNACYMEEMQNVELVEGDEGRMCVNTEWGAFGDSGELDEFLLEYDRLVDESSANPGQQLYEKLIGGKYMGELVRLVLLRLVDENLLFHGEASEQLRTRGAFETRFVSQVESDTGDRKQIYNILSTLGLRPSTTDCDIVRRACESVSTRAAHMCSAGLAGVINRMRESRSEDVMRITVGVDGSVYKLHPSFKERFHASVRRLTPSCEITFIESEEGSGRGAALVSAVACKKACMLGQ

As a reminder, the IC50 is the concentration that gives 50% inhibition. Read a high IC50 as lower potency. For `C[C@@H]1[C@H](O)[C@@H](C)/C=C/C=C/C=C/C=C/C=C/C=C/C=C/[C@H](O[C@@H]2O[C@H](C)[C@@H](O)[C@H](N)[C@@H]2O)C[C@@H]2O[C@](O)(C[C@@H](O)C[C@@H](O)[C@H](O)CC[C@@H](O)C[C@@H](O)CC(=O)O[C@H]1C)C[C@H](O)[C@H]2C(=O)O` [Amphotericin B, reference compound], the IC50 in assay [1] came out at 1.08 ± 0.84 µM.
Consider `O=C(N[C@H]1C(O)O[C@H](CO)[C@@H](O)[C@@H]1O)c1cccc(Br)c1` (stereo partly shown) [Compound 2], for which the “HsHxKIV Inh20(%)” value in assay [2] worked out at 31%. Further, the “G6PDH Inh20 (%)” value in assay [3] was 0.0 ± 0.0%. For the same compound, the “TcGlcK Inh20 (%)” value in assay [4] came to 57%. The compound further had an IC50 in assay [1] of 66.2 ± 3.83 µM.
For `O=C(N[C@H]1C(O)O[C@H](CO)[C@@H](O)[C@@H]1O)c1ccc(CCl)cc1` (stereo partly shown) [Compound 3], the “HsHxKIV Inh20(%)” value in assay [2] was 35%. For the same compound, the “G6PDH Inh20 (%)” value in assay [3] turned out to be 0.0 ± 0.0%. Also, the “TcGlcK Inh20 (%)” value in assay [4] was 42%. This compound had a 50% inhibitory concentration (IC50) in assay [1] of 52.9 ± 2.72 µM.
For the compound `O=C(N[C@H]1C(O)O[C@H](CO)C(O)[C@@H]1O)c1ccoc1` (stereo partly shown) [Compound 6], in assay [2], the “HsHxKIV Inh20(%)” value is 41%. Further, the “G6PDH Inh20 (%)” value in assay [3] was determined as 0.0 ± 0.0%. Moreover, the “TcGlcK Inh20 (%)” value in assay [4] is reported as 51%. In assay [1], the concentration for half-maximal inhibition (IC50) was 49.9 ± 2.99 µM.
In the case of `O=C(N[C@@H]1C(O)O[C@H](CO)[C@@H](O)[C@@H]1O)c1ccccc1` (stereo partly shown) [Compound 7], in assay [2], the “HsHxKIV Inh20(%)” value was 55%. For the same compound, the “G6PDH Inh20 (%)” value in assay [3] is 0.0 ± 0.0%. Also, in assay [4], the “TcGlcK Inh20 (%)” value is 71%. Moreover, the concentration for half-maximal inhibition (IC50) in assay [1] was 43.5 ± 0.68 µM.
As to `O=C(N[C@@H]1C(O)O[C@H](CO)[C@@H](O)[C@@H]1O)c1cccc(Br)c1` (stereo partly shown) [Compound 8], the “HsHxKIV Inh20(%)” value in assay [2] was found to be 27%. The “G6PDH Inh20 (%)” value in assay [3] is 0.0 ± 0.0%. For the same compound, in assay [4], the “TcGlcK Inh20 (%)” value amounted to 35%. This compound also gave an IC50 in assay [1] of 38.4 ± 1.4 µM.
The like results for `O=C(N[C@@H]1C(O)O[C@H](CO)[C@@H](O)[C@@H]1O)c1ccc(CCl)cc1` (stereo partly shown) [Compound 9] were, in that order, 28%, 0.0 ± 0.0%, 33% and 38.4 ± 1.41 µM.
Regarding `O=C(N[C@@H]1C(O)O[C@H](CO)[C@@H](O)[C@@H]1O)c1cc2ccccc2o1` (stereo partly shown) [Compound 11], in assay [2], the “HsHxKIV Inh20(%)” value is on record as 12%. Moreover, the “TcGlcK Inh20 (%)” value in assay [4] is listed as 10%. In assay [1], half-maximal inhibition (IC50) required 42.5 ± 6.5 µM.
As to `O=C(N[C@@H]1C(O)O[C@H](CO)[C@@H](O)[C@@H]1O)c1ccoc1` (stereo partly shown) [Compound 12], in assay [2], the “HsHxKIV Inh20(%)” value is 32%. Moreover, the “G6PDH Inh20 (%)” value in assay [3] amounted to 0.0 ± 0.0%. Moreover, the “TcGlcK Inh20 (%)” value in assay [4] was found to be 58%. Moreover, inhibition in assay [1] was half-maximal at 67.5 ± 1.75 µM (IC50).
The like results for `O=C(N[C@H]1C(O)O[C@H](CO)[C@H](O)[C@@H]1O)c1ccccc1` (stereo partly shown) [Compound 13] were, in that order, 38%, 0.0 ± 0.0%, 59% and 55.3 ± 11.9 µM.
On to `O=C(N[C@H]1C(O)O[C@H](CO)[C@H](O)[C@@H]1O)c1cccc(Br)c1` (stereo partly shown) [Compound 14], for which the “HsHxKIV Inh20(%)” value in assay [2] is 30%. Moreover, the “G6PDH Inh20 (%)” value in assay [3] is given as 0.0 ± 0.0%. Moreover, the “TcGlcK Inh20 (%)” value in assay [4] is 31% and 30.8%. This compound came in with an IC50 in assay [1] of 19.9 µM.
Take `O=C(N[C@H]1C(O)O[C@H](CO)[C@H](O)[C@@H]1O)c1ccc(CCl)cc1` (stereo partly shown) [Compound 15]: in assay [2], the “HsHxKIV Inh20(%)” value was 8%. Also, the “TcGlcK Inh20 (%)” value in assay [4] is 27%. The concentration for half-maximal inhibition (IC50) in assay [1] was determined as 37.9 ± 4.77 µM.
In the case of `Cc1ccc(C(=O)N[C@H]2C(O)O[C@H](CO)[C@H](O)[C@@H]2O)o1` (stereo partly shown) [Compound 16], the “HsHxKIV Inh20(%)” value in assay [2] is listed as 41%. Besides, the “G6PDH Inh20 (%)” value in assay [3] came out at 0.0 ± 0.0%. Also, in assay [4], the “TcGlcK Inh20 (%)” value is given as 30%. Further, the IC50 in assay [1] came out at 20.2 µM.
The like results for `O=C(N[C@H]1C(O)O[C@H](CO)[C@H](O)[C@@H]1O)c1cc2ccccc2o1` (stereo partly shown) [Compound 17] were, in that order, 37%, 0.0 ± 0.0%, 39% and 66.6 ± 13.7 µM.
The like results for `O=C(N[C@H]1C(O)O[C@H](CO)[C@H](O)[C@@H]1O)c1ccoc1` (stereo partly shown) [Compound 18] were, in that order, 47%, 0.0 ± 0.0%, 56% and 36.4 ± 1.47 µM.
The compound `CCOc1ccc(C2Oc3ccc(Br)cc3C=C2[N+](=O)[O-])cc1OC` (stereo not shown) [Compound 23, 6-Bromo-2-(4-ethoxy-3-methoxyphenyl)-3-nitro-2H-chromene] returned an IC50 with T. brucei of 0.614 µM.
For `COc1ccc(C2Oc3c(cc(Br)cc3OC)C=C2[N+](=O)[O-])cc1OC` (stereo not shown) [Compound 25, 6-Bromo-2-(3,4-dimethoxyphenyl)-8-methoxy-3-nitro-2H-chromene], the concentration for half-maximal inhibition (IC50) in the assay with T. brucei was determined as 0.515 µM.
Still for that read-out and setting: in the case of `COc1ccc(C2Oc3ccc(Br)cc3C=C2[N+](=O)[O-])cc1OC` (stereo not shown) [Compound 26, 6-Bromo-2-(3,4-dimethoxyphenyl)-3-nitro-2H-chromene] it was 0.435 µM; in that of `COc1ccc(C2Oc3c(Br)cc(Br)cc3C=C2[N+](=O)[O-])cc1OC` (stereo not shown) [Compound 27, 6,8-Dibromo-2-(3,4-dimethoxyphenyl)-3-nitro-2H-chromene], 0.416 µM.
On the same count and under the same terms, in the case of `CCOc1ccc(C2Oc3c(Br)cc(Br)cc3C=C2[N+](=O)[O-])cc1OC` (stereo not shown) [Compound 28, 6,8-Dibromo-2-(4-ethoxy-3-methoxyphenyl)-3-nitro-2H-chromene] it was 0.356 µM; in that of `CCOc1ccc(C2Oc3c(cc(Br)cc3OC)C=C2[N+](=O)[O-])cc1OC` (stereo not shown) [Compound 29, 6-Bromo-2-(4-ethoxy-3-methoxyphenyl)-8-methoxy-3-nitro-2H-chromene], 0.743 µM; in that of `CCOc1ccc(C2Oc3c(Cl)cc(Cl)cc3C=C2[N+](=O)[O-])cc1OCC` (stereo not shown) [Compound 30, 6,8-Dichloro-2-(3,4-diethoxyphenyl)-3-nitro-2H-chromene], 0.664 µM.
With `O=C(CO)[C@@H](O)[C@H](O)[C@H](O)CO` [D-fructose], on TcGlcK, the “increase of TcGlcK activity from 15 mM to 50 mM substrate” value stood at 2.58 fold. The figures for the “TcGlcK activity relative to D-glucose (100%)” value at TcGlcK (substrate concentration 15 mM) and on TcGlcK (substrate concentration 50 mM) were 18.9% and 48.8%, respectively.
As to `O=C[C@H](O)[C@@H](O)[C@@H](O)[C@H](O)CO` [D-galactose], the “TcGlcK activity relative to D-glucose (100%)” value at TcGlcK (substrate concentration 15 mM) and at TcGlcK (substrate concentration 50 mM) was 0.00% each time.
As to `O=C[C@@H](O)[C@@H](O)[C@H](O)[C@H](O)CO` [D-mannose], on TcGlcK, the “increase of TcGlcK activity from 15 mM to 50 mM substrate” value amounted to 2.69 fold. Further, the “TcGlcK activity relative to D-glucose (100%)” value at TcGlcK (substrate concentration 15 mM) was found to be 6.18%; on TcGlcK (substrate concentration 50 mM), 16.6%.
